Numbered stars: 1 amine (or outer) side, 2 acyl side, 3 side chain; on linkers, the order of the positions; unused ones are H or OH. Bridge positions count the residues as written; N and C are the ends. Square brackets hold non-standard residues; d marks the D form. Peptide text beside a SMILES is read from it. * marks the point of attachment. pTerphenylCO(4''-OnC5H11) = CCCCCOc1ccc(-c2ccc(-c3ccc(C(=O)*)cc3)cc2)cc1; Orn(4R-OH,5R-OH) = O=C([C@H](C[C@@H](O)[C@@H](O)N[*:3])N[*:1])[*:2]; hTyr(3S-OH,4S-OH) = N[C@H](C(=O)O)[C@H](O)[C@@H](O)c1ccc(O)cc1; Pro(3S-OH,4S-Me) = C[C@H]1CN[C@H](C(=O)O)[C@H]1O; Hyp = O=C(O)[C@@H]1C[C@@H](O)CN1
How the values were obtained:
[1] = tested on: C. albicans strain SC5314; assay: Checkerboard synergy test (FICI) of 2H with common antifungals; type: cell-based, Candida albicans; conditions: combination with 2H; SC5314, YNB medium, 37 °C, 24 h; synergy FICI ≤ 0.5, additive or indifferent > 0.5 and < 2, antagonistic > 2
Protocol: The assay was carried out as published previously. SC5314, the most widely-used wild-type C. albicans strain, was obtained from Dr. Ronda Rolfes (Georgetown University). An aliquot of SC5314 was thawed and grown overnight in Sabouraud medium at 30 °C. After harvesting by centrifugation at 1200× g for 5 min, the cells were washed twice using PBS. Afterward, the inoculum was prepared in the YNB medium, a yeast synthetic medium, with an OD600 of 0.0005 (corresponding to 5 × 10^3–1 × 10^4 colony forming units (CFU)). Five common antifungals (Amphotericin B, Anidulafungin, Flucytosine, Clotrimazole, and Itraconazole) were prepared in either DMSO or ddH2O according to the manufacturer’s instructions. The antifungal drugs were serially diluted in DMSO or ddH2O and added to wells containing 100 µL inoculum in sterile 96-well culture plates. In addition, serial dilutions of 2H were added in combination with the above antifungals. Wells without any compounds were used as growth controls. Incubation at 37 °C followed, and optical density measurements at 600 nm were taken after 24 h with wells containing only medium as blanks. The fractional inhibitory concentration index (FICI) was calculated to test the synergistic effect between each of these common antifungals with 2H according to the published protocols.
A checkerboard (or chequerboard) assay was carried out to assess the fractional inhibitory concentration index (FICI). The widely-used wild-type C. albicans strain SC5314 was used. […] More antifungals may need to be examined to find potential synergistic effects with 2H.
Figure 1 Synergy testing between 2H and several common antifungal drugs (A–E); Checkerboard analysis of antifungal activity for combination of 2H and several common antifungals. The heat-map plots of relative growth (calculated by setting the growth without compounds as 100%) were presented: (A) Amphotericin B; (B) Anidulafungin; (C) Flucytosine; (D) Clotrimazole; (E) Itraconazole. Color scale for relative growth is provided on the right. (F) The Fractional Inhibitory Concentration Index (FICI) for the combination of 2H and several common antifungals. The FICI is interpreted as follows: a synergistic effect when FICI ≤ 0.5; an additive or indifferent effect when FICI > 0.5 and <2; an antagonistic effect when FICI > 2. TEXT PRINTED IN THE PICTURE: (F) Amphotericin B: FICI: 1.077±0.060 | (F) Anidulafungin: FICI: 1.108±0.084 | (F) Clotrimazole: FICI: 0.741±0.092 | (F) Flucytosine: FICI: 1.261±0.075 | (F) Itraconazole: FICI: 0.862±0.013

[2] = tested on: C. neoformans Type Strain H99; assay: Antifungal susceptibility (growth) test, MIC90; type: cell-based, Cryptococcus neoformans; conditions: H99, YNB medium, 37 °C, 48 h
Protocol: (§1) We followed the Clinical and Laboratory Standards Institute for yeasts (CLSI M27 [80]) and our previously published protocol for the determination of MIC and MFC [33]. The C. neoformans Type Strain H99 was obtained from the laboratory of Dr. Joseph Heitman (Duke University). After growing in Sabouraud medium, this strain was resuspended in 35% glycerol, aliquoted, flash-frozen in liquid nitrogen, and stored in a −80 °C freezer.
(§2) For each experiment, a 100 µL frozen aliquot of H99 was thawed and diluted into 5 mL Sabouraud medium. After being grown at 30 °C overnight, the culture was pelleted and washed twice using PBS at room temperature. The inoculum was prepared using the YNB medium, a yeast synthetic medium, with 5 × 10^3–1 × 10^4 colony forming units (CFU) (corresponding to an OD600 of 0.0005). Sterile 96-well culture plates were used for growth tests. After aliquoting 100 µL of the inoculum into each well, serial dilutions of 2H or fluconazole were added to the wells and mixed well by pipetting up and down. After shaking at 37 °C for 48 h, growth was measured by absorbance at 600 nm using a spectrophotometric plate reader. Wells with only medium were used as blanks and wells with only inoculum were used as growth controls. […]
(§3) Figure 3 2H inhibits the growth of Cryptococcus neoformans and is fungicidal. […] (B) The MIC90 and MFC of 2H were determined on C. neoformans strain H99. […]

[3] = tested on: C. neoformans Type Strain H99; assay: Viability test, minimum fungicidal concentration (MFC); type: cell-based, Cryptococcus neoformans
Protocol: as §1, §2, §3

[4] = tested on: C. albicans strain SC5314; set-up: method as in PMID 37173314; conditions: combination with 2H; previous test; cited from earlier work

SMILES | Fractional Inhibitory Concentration Index (FICI) [1] | also measured
Nc1[nH]c(=O)ncc1F [Flucytosine] | 1.261±0.075 | 
Clc1ccccc1C(c1ccccc1)(c1ccccc1)n1ccnc1 [Clotrimazole] | 0.741±0.092 | 
OC(Cn1cncn1)(Cn1cncn1)c1ccc(F)cc1F [Fluconazole] |  | MIC90 (minimum inhibitory concentration for 90% inhibition) [2]: 16 µM; Fungicidal or fungistatic [3]: fungistatic; Synergistic effect between 2H and fluconazole [4]: no apparent synergistic effect
CCCCCOc1ccc(-c2ccc(-c3ccc(C(=O)N[C@H]4C[C@@H](O)[C@@H](O)NC(=O)[C@@H]5[C@@H](O)[C@@H](C)CN5C(=O)[C@H]([C@@H](C)O)NC(=O)[C@H]([C@H](O)[C@@H](O)c5ccc(O)cc5)NC(=O)[C@@H]5C[C@@H](O)CN5C(=O)[C@H]([C@@H](C)O)NC4=O)cc3)cc2)cc1 [Anidulafungin] ({pTerphenylCO(4''-OnC5H11)}-[Orn(4R-OH,5R-OH)]T[Hyp][hTyr(3S-OH,4S-OH)]T[Pro(3S-OH,4S-Me)]; lactam 1-C) | 1.108±0.084 | 
CCC(C)n1ncn(-c2ccc(N3CCN(c4ccc(OCC5COC(Cn6cncn6)(c6ccc(Cl)cc6Cl)O5)cc4)CC3)cc2)c1=O (centres unmarked) [Itraconazole] | 0.862±0.013 | 
C[C@@H]1[C@H](O)[C@@H](C)/C=C/C=C/C=C/C=C/C=C/C=C/C=C/[C@H](O[C@@H]2O[C@H](C)[C@@H](O)[C@H](N)[C@@H]2O)C[C@@H]2O[C@](O)(C[C@@H](O)C[C@@H](O)[C@H](O)CC[C@@H](O)C[C@@H](O)CC(=O)O[C@H]1C)C[C@H](O)[C@H]2C(=O)O [Amphotericin B] | 1.077±0.060 | 

Source: paper PMC11595998, “Characterization of a New Hsp110 Inhibitor as a Potential Antifungal” (Journal of Fungi, 2024)
